Measurements as given in PMC9738565, “N1-Benzyl Tryptamine Pan-SHIP1/2 Inhibitors: Synthesis and Preliminary Biological Evaluation as Anti-Tumor Agents” (Molecules, 2022).
pIC50: −log10 of the molar value. Where two headings read alike, the source gives them in different places. Marks after values point to notes of the source that are not given here.

Key:
SHIP2 [1] = molecular target: T1, SHIP2 (Homo sapiens, UniProt O15357); experiment: Malachite green phosphatase release assay, SHIP2; assay type: biochemical; conditions: for inhibition at 250 µM: read-out: Malachite (250 µM) % Inhib. SHIP2; for inhibition at 500 µM: read-out: Malachite (500 µM) % Inhib. SHIP2; for activity against SHIP2 (in words): summary of Table 1
T1 construct: purchased Echelon Biosciences
T1 sequence (O15357 1-1258): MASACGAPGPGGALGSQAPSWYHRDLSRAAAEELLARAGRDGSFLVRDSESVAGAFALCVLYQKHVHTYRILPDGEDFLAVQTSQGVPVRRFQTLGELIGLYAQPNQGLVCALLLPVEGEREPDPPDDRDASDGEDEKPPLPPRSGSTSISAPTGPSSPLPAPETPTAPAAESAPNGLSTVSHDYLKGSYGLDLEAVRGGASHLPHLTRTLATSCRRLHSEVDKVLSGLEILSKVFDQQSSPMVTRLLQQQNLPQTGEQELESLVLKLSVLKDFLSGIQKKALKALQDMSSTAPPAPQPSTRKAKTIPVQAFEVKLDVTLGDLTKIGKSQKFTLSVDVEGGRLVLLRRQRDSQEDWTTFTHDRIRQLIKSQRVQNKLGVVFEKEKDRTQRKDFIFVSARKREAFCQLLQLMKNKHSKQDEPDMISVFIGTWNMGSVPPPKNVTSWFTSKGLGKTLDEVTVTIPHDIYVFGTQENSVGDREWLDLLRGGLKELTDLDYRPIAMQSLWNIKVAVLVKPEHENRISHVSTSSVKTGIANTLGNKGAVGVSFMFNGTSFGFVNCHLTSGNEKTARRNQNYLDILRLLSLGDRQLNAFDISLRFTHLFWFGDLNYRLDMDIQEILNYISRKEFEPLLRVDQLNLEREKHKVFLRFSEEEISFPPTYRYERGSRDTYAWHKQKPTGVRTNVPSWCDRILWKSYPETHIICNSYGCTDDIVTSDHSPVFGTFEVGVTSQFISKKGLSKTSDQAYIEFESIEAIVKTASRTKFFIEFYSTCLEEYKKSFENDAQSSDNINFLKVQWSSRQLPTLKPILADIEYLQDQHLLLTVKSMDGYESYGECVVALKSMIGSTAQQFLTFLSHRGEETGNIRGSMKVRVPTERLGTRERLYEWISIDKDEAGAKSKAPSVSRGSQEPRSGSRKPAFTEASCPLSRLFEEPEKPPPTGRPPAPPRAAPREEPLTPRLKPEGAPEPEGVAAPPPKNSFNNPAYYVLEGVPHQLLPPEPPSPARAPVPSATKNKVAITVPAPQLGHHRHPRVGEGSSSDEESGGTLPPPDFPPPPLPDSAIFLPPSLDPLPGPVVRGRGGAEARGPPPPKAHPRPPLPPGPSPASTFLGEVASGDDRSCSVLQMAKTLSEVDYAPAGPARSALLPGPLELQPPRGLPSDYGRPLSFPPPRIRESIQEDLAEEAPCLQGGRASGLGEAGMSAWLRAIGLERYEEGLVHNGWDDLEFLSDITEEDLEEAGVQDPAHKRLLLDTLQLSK
Procedure: (§1) These compounds were then tested for their activity against the two SHIP paralogs, SHIP1 and SHIP2 in the colorimetric malachite green phosphatase assay. The malachite green assay detects the amount of free phosphate produced from enzymatic reactions with SHIP and an inositol phospholipid substrate.
(§2) 4.7. Malachite Green Phosphatase Release Assays
(§3) Malachite green assays to monitor phosphatase release (Echelon Biosciences) were performed with recombinant human truncated SHIP1 (tSHIP1) and SHIP2 (Echelon Biosciences). Serial dilutions of the compounds dissolved in DMSO were added to the recombinant enzymes diluted in reaction buffer Rx (50 mM Hepes pH 7.4, 150 mM NaCl, 1 mM MgCl2, 0.25 mM EDTA) in triplicate reaction wells in 96-well plates. After incubation for 2 min at room temperature, 2.5 µL of 1 mM phosphatidylinositol 3,4,5-trisphosphate diC8 (PI(3,4,5)P3-diC8, Echelon Biosciences) was added to each reaction to a final concentration of 100 µM in a final volume of 25 µL /well. Following a 20 min incubation at 37 °C, 100 µL of Malachite Green solution (Echelon Biosciences) was added to each well and the plates were incubated at room temperature in the dark for 15 min. Plates were then read at 620 nm on a plate reader (Synergy 2, BioTek, Santa Clara, CA, USA). In addition, 3α-Aminocholestane, a known SHIP1 inhibitor, and AS1949490, a known SHIP2 inhibitor, were used as positive controls.

tSHIP1 = molecular target: T2, tSHIP1 (Homo sapiens, UniProt Q92835); experiment: Fluorescence Polarization (FP) assay for the detection of PI(3,4)P2, SHIP1; assay type: biochemical; conditions: FP assay; read-out: IC50 SHIP1 (Via FP)
T2 sequence (Q92835 399-715 limits assumed): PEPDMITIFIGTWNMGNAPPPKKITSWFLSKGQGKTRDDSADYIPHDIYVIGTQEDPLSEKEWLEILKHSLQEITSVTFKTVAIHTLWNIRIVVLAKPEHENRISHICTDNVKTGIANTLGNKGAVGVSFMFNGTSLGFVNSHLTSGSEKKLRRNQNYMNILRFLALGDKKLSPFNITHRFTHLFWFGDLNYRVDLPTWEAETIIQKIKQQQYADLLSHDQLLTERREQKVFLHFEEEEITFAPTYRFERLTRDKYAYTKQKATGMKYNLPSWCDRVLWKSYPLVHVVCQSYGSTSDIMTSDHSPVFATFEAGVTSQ
Procedure: as §1
4.8. Fluorescence Polarization (FP) Assays for the Detection of PI(3,4)P2
The FP Assay for the detection of PI(3,4)P2 (Echelon Biosciences) was performed using tSHIP1 [48] with serial dilutions of the tryptamines in DMSO according to the manufacturer’s recommendation as previously described. […] 40 µL of 4 µM PIP3 (PI(3,4,5)P3-diC8) in Rx buffer is added to each reaction and incubated at 37 °C for 20 min, followed by heat inactivation for 3 min at 95 °C. Reactions were spun down briefly and 10 µL of each reaction was added in 6 replicate wells to a black 384-well plate provided with the FP kit. 10 µL of 1X reconstituted Detector (a phosphoinositide binding protein) in PBS is then added to each well, followed by 5 µL of 1X freshly diluted Probe (in PBS, a fluorophore-labeled phosphoinositide) protected from light. Assay plates are gently tapped to mix, the plate is sealed and spun down briefly and the reaction is allowed to equilibrate for 60 min at room temperature protected from light.

SHIP2 [2] = molecular target: T1, SHIP2; experiment: Fluorescence Polarization (FP) assay for the detection of PI(3,4)P2, SHIP2; assay type: biochemical; conditions: read-out: IC50 SHIP2 (via FP)
[3] = tested on: recombinant human truncated SHIP1 (tSHIP1); experiment: Malachite green phosphatase release assay, SHIP1; assay type: biochemical; conditions: for Malachite (250 µM) % Inhib. SHIP1: 250 µM compound; for Malachite (500 µM) % Inhib. SHIP1: 500 µM compound; for activity against SHIP1 (in words): summary of Table 1
Procedure: These compounds were then tested for their activity against the two SHIP paralogs, SHIP1 and SHIP2 in the colorimetric malachite green phosphatase assay. The malachite green assay detects the amount of free phosphate produced from enzymatic reactions with SHIP and an inositol phospholipid substrate. The Malachite assay is useful for ruling out compounds that are fluorescent or have aggregation issues and is inexpensive, so it was utilized as the primary screen even though it is not as sensitive as other assays.
as §2, §3

[4] = Behaviour of compound when mixed with assay buffer; assay type: physicochemical
Procedure: Compounds with modifications of the primary amine of the tryptamine were also tested. […] While SHIP1 agonists may have applications as anti-inflammatories, the agonist activity of 15 was weak and therefore was not further pursued. […] While these analogs may present a path towards selective inhibitors of SHIP2, these compounds will not be useful in determining the effects of pan-SHIP inhibition in tumor models.

Structure (SMILES)	inhibition at 250 µM (SHIP2 [1]; 250 µM compound) [%]	inhibition at 500 µM (SHIP2 [1]; 500 µM compound) [%]	activity against SHIP2 (in words) (SHIP2 [1])	pIC50 (tSHIP1)	pIC50 (SHIP2 [2])	Malachite (250 µM) % Inhib. SHIP1 [3]	Malachite (500 µM) % Inhib. SHIP1 [3]	activity against SHIP1 (in words) [3]	solubility behaviour in buffer [4]	inhibition at 250 µM (SHIP2 [1]) [%]	inhibition at 500 µM (SHIP2 [1]) [%]
CSc1ccc2c(c1)c(CCN)c(C)n2Cc1ccccc1.Cl [Compound 7e, 2-(1-Benzyl-2-methyl-5-(methylthio)-1H-indol-3-yl)ethanaminium chloride]	28	39	active analog	4.89	4.92	0%	40%	active analog	–	–	–
CCNCCc1c(C)n(Cc2ccccc2Cl)c2ccc(SC)cc12 [Compound 17, (2{1-[(2-Chlorophenyl)methyl]-2-methyl-5-(methylsulfanyl-1H-indol-3-yl}ethyl)ethylaminium chloride]	13	47	–	–	–	1%	21%	no inhibition	–	–	–
CSc1ccc2c(c1)c(CCN)c(C)n2Cc1ccc(Cl)cc1.Cl [Compound 7b, 2-(1-(4-Chlorobenzyl)-2-methyl-5-(methylthio)-1H-indol-3-yl)ethanaminium chloride]	18	49	significant activity	4.96	–	0%	33%	significant activity	–	–	–
CSc1ccc2c(c1)c(CCN)c(C)n2Cc1ccc(Br)cc1.Cl [Compound 7c, 2-(1-(4-Bromobenzyl)-2-methyl-5-(methylthio)-1H-indol-3-yl)ethanaminium chloride]	30	38	–	4.29	4.24	3%	47%	–	–	–	–
CSc1ccc2c(c1)c(CCN(C)C)c(C)n2Cc1ccccc1Cl [Compound 14, (2{1-[(2-Chlorophenyl)methyl]-2-methyl-5-(methylsulfanyl-1H-indol-3-yl}ethyl)dimethylaminium chloride]	0	6	inactive	–	–	0%	5%	inactive	–	–	–
CNCCc1c(C)n(Cc2ccccc2Cl)c2ccc(SC)cc12 [Compound 13, (2{1-[(2-Chlorophenyl)methyl]-2-methyl-5-(methylsulfanyl-1H-indol-3-yl}ethyl)methylaminium chloride]	14	38	–	–	–	0%	9%	no inhibition	–	–	–
CSc1ccc2c(c1)c(CCNC(C)=O)c(C)n2Cc1ccccc1Cl [Compound 16]	0	0	–	–	–	25% ^a	0% ^a	–	tended to precipitate when mixed with buffer	–	–
CSc1ccc2c(c1)c(CCNS(C)(=O)=O)c(C)n2Cc1ccccc1Cl [Compound 15, N-(2{1-[(2-Chlorophenyl)methyl]-2-methyl-5-(methylsulfanyl)-1H-indol-3-yl}ethyl) methanesulfonamide]	–	–	–	–	–	−10%	−27%	weak agonist	–	–	–
CSc1ccc2[nH]c(C)c(CCN)c2c1.Cl [Compound 7f, 2-(2-Methyl-5-(methylthio)-1H-indol-3-yl)ethanaminium chloride]	–	–	virtually no activity	–	–	0%	0%	virtually no activity	–	0	2
